How the values were obtained:
IL-1β = assay: RIA-Kit IL-1 quantification in human monocyte cultures; type: cell-based
Experimental: (§1) Mononuclear cells are obtained from the blood of healthy volunteers via centrifugation and cultivated on tissue culture dishes with test compound at varying concentrations [Schnyder et al., J. Immunol., 138, 496-503 (1987)]. The non-adherent lymphocytes are removed after 4 hours by washing several times. Fresh medium, test compound and lipopolysaccharide (LPS) as stimulant are added and the monocytes incubated for further 19 hours. The pooled culture media are diluted 1:10 (v:v) with fresh medium and added to confluent rabbit chondrocytes. MP activity in the chondrocyte culture medium is assayed after a further 2 days. COMPOUNDS OF THE INVENTION, in particular compounds D2 and K1, are active in suppressing monokine release in the above test method at concentrations of the order of from about 30 to about 100 μM. Thus determined ED50 S for the compounds D2 and K1 each in substantially pure Z-isomeric form in a series of 3 or 7 separate experiments each with 3 parallel determinations are, for both compounds, of the order of 60 to 100 μM.
The procedures of example 1.1.b. above are repeated and IL-1 concentrations in recovered, undiluted culture medium determined employing a CISTRON IL-1 radioimmuno assay kit (the CISTRON kit is obtainable from Cistron, 10, Bloomfield Avenue, P.O. Box 2004, Pine Brook, NJ 07 058 USA. It is IL-1β specific and recognises both intra- and extra-cellular material).

adjuvant arthritis = assay: Disease modifying activity in an animal model of rheumatoid arthritis (adjuvant arthritis); type: in vivo, rat; settings: substantially pure Z-isomeric form
Experimental: Following induction of adjuvant arthritis in 48 adult female rats, the test compound is administered orally for 40 days. Articular swelling and bone densitometry are measured at days 10, 20, 30 and 40 and compared with control animals receiving placebo. In addition, cartilage glycosaminoglycans (GAG) are measured in femoral condyles removed on completion of the treatment period. α2 -Macroglobulin is determined in serum on days 0, 3, 6, 9, 16 and 22.
The procedure for in vivo estimation of bone density in adult rats as used in the above test method is based on the radiographic densitometric method described by Albanese et al. in J. Amer. Ger. Soc. 17, 142-153 (1969). A longitudinal bone survey is conducted in the arthritic rats during the treatment with the test substance and compared with untreated arthritic rats and control animals. In vivo quantitative radiographic scanning is performed taking the trabecular mass as the parameter. […] Because of the characteristics of the system (image darkening representing increased Relative Optical Density) the recorded values are expressed as (1-x) where x Is the experimentally measured ROD in order to conform to the biological effect of X-rays on bone tissue (i.e. film darkening indicates decrease in bone density). […]

beagle dogs = assay: Tolerability / pilot toxicology in beagle dogs; type: in vivo; settings: up to 200 mg/kg/day for 26 weeks
pulmonary fibrosis = assay: Pulmonary fibrosis (bleomycin induced); type: in vivo, New Zealand white rabbits; settings: ca. 2.5 to 60 mg/kg/day p.o.; substantially pure Z-isomeric form; vs placebo
Experimental: Testing is carried out in accordance with the general methodology described by G. J. Laurent et al. in Eur. J. Clin. Invest. (1981) 11, 441-448. Pulmonary fibrosis is induced in groups of 4 New Zealand white rabbits (aged 127 days at commencement of the experiment), each weighing 2.0-2.5 kg, by intratracheal instillation of 10 mg/kg bleomycin. The lungs of test animals are examined 2, 4 and 8 weeks later.

monocytes = assay: Effect on monocyte adherence; type: cell-based, human; settings: 4 h; DNA and LDH of adherent monocytes
Experimental: Monocytes of freshly harvested human mononuclear cells are prepared in presence of the compound to be tested or a vehicle. After 4 h the medium is aspirated and the cell monolayer is washed as usual. The adherent monocytes are then lysed using digitonin in water, and the amount of DNA and the activity of the cytosol enzyme LDH is measured.

Calvaria halves = assay: Prevention of bone resorption: calcium release from calvaria; type: cell-based, Swiss albino mice; settings: Mus musculus
Experimental: Calvaria halves (frontal and parietal parts) from 4-5 day Swiss albino mice are cultured on stainless steel grids in BGJ bone tissue culture medium, supplemented with 1 mg/ml BSA at the interphase of medium and gas in a humidified atmosphere (95% air/5% CO2 ) at 37° C. - c.f. Reynolds et al. in "Organ Culture in Biomed. Res." eds. Balls and Mamichendam, Cambridge University Press, p.p. 355-366 (1976).
Influence of test substance at varying concentrations on calcium release into :he test medium in the presence of calcium release stimulators [PGE2, LPS or […] (1,25D3)]is determined. For this purpose calcium concentrations are measured in bone culture supernatants obtained from 72 and 144 hour cultures and in TCA extracts of the calvaria at the end of culture by spectrometric methods [Gindler et al., Am. J. Clin. Pathol. 58, 376-382 (1972)]. Activity of lysosomal enzyme N-acetyl-glucose-aminidase in bone culture supernatants and in Triton 100 extracts of calvaria after culture is also determined employing the method of Banerjee and Basu, Biochem. J., 45, 113-118 (1975). Changes in enzyme activity are expressed as μ units/calvarium half and as % release.
(For the calculation of IC50 values the difference between resorption rate in control cultures and resorption in maximally stimulated cultures is taken as 100 %. The IC50 is taken as the concentration of test substance which inhibits maximum resorption by 50 %)

human monocytes = assay: LAF-test (thymocyte proliferation), monokine production by human monocytes; type: cell-based; settings: Monocyte, substantially pure Z-isomeric form, 2 separate experiments, 3 parallel determinations, read-out: ED50 (inhibition of monokine production)
Experimental: as §1
Lymphocyte proliferation is the standard test for monokine activity. […] The cells are incubated for 2 days in 96-well culture plates and the proliferation rate determined using a ^3 H-thymidine pulse (1 μC/well) during the final 6 hours. The incorporated radioactivity is collected on filter paper and counted. […]

[1] = CISTRON IL-1 radioimmuno assay, human monocytes

With `COC1=Cc2ccccc2/C(=C/C(=O)O)c2ccsc21` [Compound D2, [10-Methoxy-4H-benzo[4,5]cyclohepta[1,2-b]thiophen-4-ylidene]-acetic acid] the “extra-cellular IL-1 level” value (IL-1β; [1]) was “extra-cellular content is reduced significantly”, the “intracellular IL-1 level” value (IL-1β; [1]) was “remain substantially unaffected” and the IC50 (IL-1β; Homo sapiens, Monocyte, 19 h, substantially pure Z-isomeric form, 2-8 experiments, 3 parallel determinations, read-out: ED50 for extra-cellular IL-1 level suppression) was roughly 40 µM. For the same molecule, the “protective effect on cartilage and bone” value (adjuvant arthritis; rats with adjuvant arthritis) was “show a protective effect on cartilage and bone in rats with adjuvant arthritis”, the disease modifying activity (adjuvant arthritis; especially after 30 days treatment) was “exhibit disease modifying activity especially after a period of 30 days treatment” and the tolerability (beagle dogs) was “generally well tolerated”. For the same molecule, the pulmonary fibrosis (pulmonary fibrosis) was “substantial reduction of pulmonary fibrosis”, the “adherence of the monocytes” value (monocytes) was “neither the COMPOUNDS OF THE INVENTION, in particular compound D2, nor the vehicle reduce the adherence of the monocytes” and the IC50 (Calvaria halves; in the presence of 1,25D3) was 38 µM. The IC50 (Calvaria halves; in the presence of LPS) was 28 µM, the IC50 (Calvaria halves; in the presence of PGE2) was 22 µM and the IC50 (human monocytes) was roughly 30 µM.

From patent publication US4956381A, “Treating tissue calcium depletion or degenerative processes in bone or cartilage” (Sandoz Ltd., priority 1987, dated 1990)
